Measured values taken from publication PMC6689897, “Drugging an undruggable pocket on KRAS” (Proceedings of the National Academy of Sciences of the …, 2019).

Molecular target: GCP-KRASG12D (Homo sapiens, UniProt P01116, G12D)
Test: HSQC NMR KD of fragment hits
Format: binding
Conditions: fragment screen hits, active form of KRAS
From the text: Next, we attempted to identify compounds that bind to GTP-KRAS via fragment-based screening ([21]–[23]). A library of 1,800 fragments was screened using both saturation transfer difference NMR ([24], [25]) and microscale thermophoresis ([26]) using KRAS^G12V-phosphomethylphosphonic acid guanylate ester (GCP-KRAS^G12V), from which 16 fragments were found and subsequently validated (hit rate 0.9%) by the observation of cross-peak shifts in the 2D ^1H/^15N heteronuclear single-quantum correlation (HSQC) NMR spectra of GCP-KRAS^G12D. We also screened a library of 13,800 compounds using uniformly ^15N-labeled GNP-KRAS by HSQC NMR experiments. Representatives of some of the fragments which bound the active form of KRAS from the 2 screens are depicted in Fig. 1A. […]
98 Measurement of dissociation constants KD for the compounds synthesized. NMR
99 was initially the only method that could provide K Ds for the weakly binding molecules to
100 support compound optimization. 1H/15N SoFast HMQC experiments(3) were recorded in
101 3mm NMR tubes (170µL filling) at a protein concentration of 70-100µM. Spectra were
102 recorded on a Avance III 700MHz spectrometer equipped with a cryogenically cooled
103 5mm TCI probe and 48 scans, 128 f1 increments and 2k data points in f2. Total
104 acquisition time was 22 minutes. 4 – 6 titration points were performed w ith individual
105 samples for each titration point made from 50mM DMSO -d6 stock solutions. Total
106 DMSO-d6 concentration was kept constant by backfilling every sample to a total of 4%
107 DMSO. KDs were calculated from the differences in chemical shift induced by t he small
108 molecules upon interacting with the protein. Average chemical shifts from the 1H and 15N
109 dimension were calculated according to the following equation:
110 ∆δobs = √[δH2 + (α ∙δN)2] with α set to 0.14
111 The Δδobs values at the respective ligand concentrations and the total concentration
112 of protein allow a fit to the KD value of the ligand as long as it is binding under fast
113 exchange conditions as was the case for most of the compounds tested.(4) Usually Δδobs
115 following equation was used to determine the individual KDs: […]
121 HEPES, 150 mM NaCl, 3% DMSO, pH 7.5. All measurements were carried out at 25°C.
122 Titrations were performed in inverse mode. The cell was loaded with compound solutions
123 in the range of 10 to 100 µM. All injections were performed using an initial injection of
124 0.5 μL followed by 19 injections of 2 μL of protein in the range of 130-500 µM. The data
125 were analyzed with the MicroCal PEAQ-ITC analysis software package. The first data

GCP-KRASG12D, sequence (P01116 1-169 isoform P01116-2 G12D): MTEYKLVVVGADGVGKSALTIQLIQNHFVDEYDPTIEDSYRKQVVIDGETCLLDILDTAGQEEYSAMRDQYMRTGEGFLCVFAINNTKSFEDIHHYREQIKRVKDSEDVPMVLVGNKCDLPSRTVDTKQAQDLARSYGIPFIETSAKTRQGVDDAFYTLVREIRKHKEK

Compound | Kd [µM]
Clc1ccc2[nH]c3c(c2c1)CNCC3 [Compound 2] | > 2000
O=C(c1c[nH]c2ccccc12)N1CCNCC1 [Compound 3] | > 2000
Nc1nc2ccccc2n1Cc1ccccc1 [Compound 4] | > 2000
c1ccc2c(CN3CCOCC3)c[nH]c2c1 [Compound 6] | > 5000
Nc1ccc2nc(Cc3c[nH]c4ccccc34)[nH]c2c1 [Compound 7] | 1300
